# Experimental data as given in patent publication US20070270436A1, “NOVEL AMINO- AND IMINO-ALKYLPIPERAZINES” (Recordati Ireland Limited, priority 2006, published 2007).
# Where two headings read alike, the source gives them in different places.
# Assays:
# [1] = test system: rhythmic bladder-voiding contractions; assay: Rhythmic bladder-voiding contractions induced by bladder filling in anaesthetised rats; type: in vivo, rat; conditions: for ED50: Rattus norvegicus
# Method: Female Sprague-Dawley rats weighing 225-275 g (Crl: CD® (SD) IGS BR, Charles River Italia) were used. The animals were housed with free access to food and water and maintained on a forced 12-hour alternating light-dark cycle at 22-24° C. for at least one week, except during the experiment. The activity on rhythmic bladder voiding contractions was evaluated according to the method of Dray (Dray J., Pharmacol. Methods, 13:157, 1985), with some modifications as in Guarneri (Guarneri, Pharmacol. Res. 27:173, 1993). Briefly, the rats were anaesthetised by subcutaneous injection of 1.25 g/kg (5 ml/kg) urethane, after which the urinary bladder was catheterised via the urethra using PE 50 polyethylene tubing filled with physiological saline. The catheter was tied in place with a ligature around the external urethral orifice and was connected to conventional pressure transducers (Statham P23 ID/P23 XL). […] The bladder was then filled via the recording catheter by incremental volumes of warm (37° C.) saline until reflex bladder-voiding contractions occurred (usually 0.8-1.5 ml). For intravenous injection of bioactive compounds, PE 50 polyethylene tubing filled with physiological saline was inserted into the jugular vein.
# From the cystometrogram, the number of contractions recorded 15 minutes before (basal values) and after treatment, as well as the mean amplitude of these contractions (mean height of the peaks in mmHg), was evaluated.
# Since most compounds produced an effect that was relatively rapid in onset and led to a complete cessation of bladder contractions, bioactivity was conveniently estimated by measuring the duration of bladder quiescence (i.e., the time during which no contractions occurred). The number of tested animals showing a reduction in the number of contractions higher than 30% of that observed in the basal period was recorded too.
# The extrapolated doses which induced a reduction in the number of contractions greater than 30% in 50% of the treated rats (ED50) were also evaluated by the method of Bliss (Bliss C. I., Quart J. Pharm. Pharmacol. 11, 192-216, 1938).
# urinary bladder = assay: Cystometric parameters in conscious rats after oral administration; type: in vivo, rat; conditions: 3 mg/kg p.o., 1-5 h after treatment
# Method: Male Sprague-Dawley rats [Crl: CD® (SD) IGS BR] of 300-400 g body weight supplied by Charles River Italia were used. The animals were housed with free access to food and water and maintained on a forced 12-hour-light/12-hour-dark cycle at 22-24° C. of temperature, except during the experiment. To quantify urodynamic parameters in conscious rats, cystometrographic studies were performed according to the procedure previously reported (Guarneri et al., Pharmacol. Res. 24: 175, 1991).
# Briefly, the rats were anaesthetised by intraperitoneal administration of 3 ml/kg of Equithensin solution (pentobarbital 30 mg/kg and chloral hydrate 125 mg/kg) and placed in a supine position. An approximately 10 mm-long midline incision was made in the shaved and cleaned abdominal wall. The urinary bladder was gently freed from adhering tissues, emptied and then cannulated via an incision in the bladder body, using a polyethylene cannula (0.58-mm internal diameter, 0.96-mm external diameter) which was permanently sutured with silk thread. The cannula was exteriorised through a subcutaneous tunnel in the retroscapular area, where it was connected to a plastic adapter in order to avoid the risk of removal by the animal. For drug testing, the rats were utilised one day after implantation.
# On the day of the experiment, the rats were placed in modified Bollman cages, i.e., restraining cages that were large enough to permit the rats to adopt a normal crouched posture, but narrow enough to prevent turning around. After a stabilisation period of about 20 minutes, the free tip of the bladder cannula was connected through a T-shaped tube to a pressure transducer (Statham P23XL) and to a peristaltic pump (Gilson minipuls 2) for continues infusion of a warm (37° C.) saline solution into the urinary bladder, at a constant rate of 0.1 ml/minute. The intraluminal-pressure signal during infusion of saline into the bladder was continuously recorded on a polygraph (Rectigraph-8K San-ei with BM614/2 amplifier from Biomedica Mangoni). The cystometrogram was used to evaluate the urodynamic parameters of bladder volume capacity (BVC) and micturition pressure (MP). BVC (ml) is defined as the volume of saline infused into the bladder necessary to induce detrusor contraction followed by micturition. MP (mmHg) is defined as the maximal intravesical pressure caused by contraction during micturition. Basal BVC and MP values were evaluated as mean of the values observed in the cystometrograms recorded in an initial period of 30-60 minutes. Following determination of basal BVC and MP, the infusion was interrupted and the test compounds were administered orally by a stomach tube. Bladder infusion was resumed and changes in BVC and MP were evaluated from the mean values obtained in the cystometrograms observed during 1, 2, 3, 4 and 5 hours after treatment. Compounds were administered in a volume of 2 ml/kg and groups of control animals received the same amount of vehicle (0.5% methocel in water) orally.
# Data were expressed as mean ±standard error. The percent changes of BVC and MP versus the basal values, as well as Δ values (difference in ml or mmHg) of BVC and MP (BVC or MP at time “x” minus basal value), were also evaluated for each rat/time. In the figures, data were reported as % changes versus basal values.
# Statistical analysis on BVC and MP values, as well as on Δ values, was performed by S.A.S./STAT software, version 6.12. The observed differences between vehicle (control) and test treatments were evaluated on Δ values of BVC and MP, whereas the differences between the values at different times versus basal values were analyzed on original BVC and MP data.
# primates = conditions: cited from earlier work
# [2] = test system: release of glutamate and acetylcholine; conditions: dentate gyrus of the hippocampus; cited from earlier work
# [3] = test system: 5-HT1A agonist discriminative stimulus cue; conditions: 0.01-1 mg/kg i.m.; cited from earlier work
# aged rhesus monkeys = conditions: 1 mg/kg p.o.; cited from earlier work
# marmosets = conditions: 2 mg/kg i.m., visual spatial discrimination; cited from earlier work
compound,measurement,setting,value
"CCN(CC)CC#CCOC(=O)C(O)(c1ccccc1)C1CCCCC1 (stereo not drawn) [Oxybutynin, oxybutynin]",ED50,"[1]; intravenous administration, n.a. = not active, no significant reduction of the height of the peaks, read-out: ED50 (amplitude) (extrapolated dose inducing a 30% reduction of amplitude of the contractions in 50% of treated rats)",0.24 mg/kg
same,ED50,"[1]; intravenous administration, read-out: ED50 (frequency) (extrapolated dose inducing a reduction of the number of contractions >30% in 50% of treated rats)",> 10 mg/kg
same,frequency of bladder contractions,[1]; at 240 μg/kg,did not lower the frequency
same,ED10 min (extrapolated dose inducing 10 minutes of disappearance of the contractions),[1]; intravenous administration,7.77 mg/kg
same,bladder volume capacity (BVC),urinary bladder,"slight, not-significant increase"
same,micturition pressure (MP),urinary bladder,greatly reduced
COc1ccccc1N1CCN(CCN(C(=O)C2CCCCC2)c2ccccn2)CC1 [WAY-100635],cognitive deficits induced by glutamatergic and cholinergic dysfunction,primates,can alleviate
C[C@H](CN(C(=O)c1ccc(C#N)cc1)c1ccccn1)N1CCN(c2cccc3c2OCCO3)CC1 [lecozotan],potassium chloride-stimulated release of glutamate and acetylcholine,[2],significantly potentiated
same,blockade of the 5-HT1A agonist discriminative stimulus cue,[3],dose-related blockade
same,substitution for 8-OH-DPAT,[3],did not substitute
same,task performance efficiency,aged rhesus monkeys,significant improvement
same,learning deficits induced by MK-801 and by cholinergic lesions of the hippocampus,marmosets,reversed
